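Cultured in 96-well plates, cells were exposed to test compound for 48 hours across five concentrations. GI50 marks 50% less growth.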 Activity calls are given as the source filed them. Rule as the data show it: active = GI50 up to about 1.1 µM and inactive = higher.
What was measured:
Experiment in all cases: inhibition of tumour cell growth, NCI panel, 48 h
HCT-15 = test system: HCT-15
RPMI-8226 = test system: RPMI-8226
K562 = test system: K562
SN12C = test system: SN12C
HT-29 = test system: HT-29
IGROV-1 = test system: IGROV-1
SF-268 = test system: SF-268
UACC-257 = test system: UACC-257
COLO 205 = test system: COLO 205
OVCAR-4 = test system: OVCAR-4
NCI-H522 = test system: NCI-H522
OVCAR-8 = test system: OVCAR-8
NCI-H23 = test system: NCI-H23
UACC-62 = test system: UACC-62
EKVX = test system: EKVX
MOLT-4 = test system: MOLT-4
HOP-62 = test system: HOP-62
SNB-19 = test system: SNB-19
CAKI-1 = test system: CAKI-1
OVCAR-5 = test system: OVCAR-5

Row | SMILES | GI50 (HCT-15) | GI50 (RPMI-8226) | GI50 (K562) | GI50 (SN12C) | GI50 (HT-29) | GI50 (IGROV-1) | GI50 (SF-268) | GI50 (UACC-257) | GI50 (COLO 205) | GI50 (OVCAR-4) | GI50 (NCI-H522) | GI50 (OVCAR-8) | GI50 (NCI-H23) | GI50 (UACC-62) | GI50 (EKVX) | GI50 (MOLT-4) | GI50 (HOP-62) | GI50 (SNB-19) | GI50 (CAKI-1) | GI50 (OVCAR-5)
1 | COc1ccc(/C=C/C(=O)C(C)(C)C)cc1OC | 38.5 µM | 47.4 µM (inactive) | 36.7 µM (inactive) | 65.8 µM (inactive) | 62.5 µM (inactive) | > 100 µM (inactive) | 78.2 µM (inactive) | 63.5 µM (inactive) | > 100 µM (inactive) | 79.6 µM (inactive) | 34.8 µM (inactive) | > 100 µM (inactive) | 41.5 µM (inactive) | 52.6 µM (inactive) | > 100 µM (inactive) | 59.6 µM (inactive) | > 100 µM (inactive) | > 100 µM (inactive) | 78 µM (inactive) | > 100 µM (inactive)
2 | Cc1ccc(/N=N/C(C2=NC(=O)CS2)c2nc3ccccc3[nH]2)cc1 (stereo not given) | > 100 µM | > 100 µM (inactive) | > 100 µM (inactive) | > 100 µM (inactive) | > 100 µM (inactive) | > 100 µM (inactive) | 38.5 µM (inactive) | > 100 µM (inactive) | > 100 µM (inactive) | > 100 µM (inactive) | > 100 µM (inactive) | > 100 µM (inactive) | > 100 µM (inactive) | > 100 µM (inactive) | > 100 µM (inactive) | 20.7 µM (inactive) | 27.2 µM (inactive) | > 100 µM (inactive) | > 100 µM (inactive) | > 100 µM (inactive)
3 | CN1CCC(C(=O)NNc2ccccc2)CC1 | 1.61 µM | 24.8 µM (inactive) | 0.931 µM (active) | > 100 µM (inactive) | 7.53 µM (inactive) | > 36.6 µM (inactive) | 7.05 µM (inactive) | 18.6 µM (inactive) | 3.08 µM (inactive) | 13.3 µM (inactive) | 3.27 µM (inactive) | 9.73 µM (inactive) | 42.4 µM (inactive) | 2.48 µM (inactive) | 34.5 µM (inactive) | 1.23 µM (inactive) | 14.3 µM (inactive) | > 100 µM (inactive) | > 20.6 µM (inactive) | 8.3 µM (inactive)
4 | CCCCCCNC(=O)C(C)C1CCC2(C)C=CC(=O)C(C)=C2C1O (stereo not given) | > 100 µM | > 70.3 µM (inactive) | 68.5 µM (inactive) | > 100 µM (inactive) | > 100 µM (inactive) | > 100 µM (inactive) | > 100 µM (inactive) | > 94.8 µM (inactive) | > 100 µM (inactive) | 96.8 µM (inactive) | 86.3 µM (inactive) | > 100 µM (inactive) | > 94 µM (inactive) | > 100 µM (inactive) | > 100 µM (inactive) | > 75.2 µM (inactive) | > 100 µM (inactive) | > 100 µM (inactive) | > 100 µM (inactive) | 99.1 µM (inactive)
5 | Cc1coc2c1C[C@@]1(C)[C@H](CCC[C@@H]1C)[C@H]2O | 36.2 µM | 18.1 µM (inactive) | 28.4 µM (inactive) | 15.6 µM (inactive) | 33.3 µM (inactive) | 19.8 µM (inactive) | 16.9 µM (inactive) | 31.8 µM (inactive) | 41.6 µM (inactive) | 28.1 µM (inactive) | 22.4 µM (inactive) | 35.4 µM (inactive) | 36.8 µM (inactive) | 69.5 µM (inactive) | 58.7 µM (inactive) | 18 µM (inactive) | 29.4 µM (inactive) | > 100 µM (inactive) | 44.5 µM (inactive) | 37.2 µM (inactive)
6 | Cc1ccc2c(O)cc(-c3ccc(F)cc3)nc2n1 | 18.5 µM | 24.9 µM (inactive) | 22 µM (inactive) | 52 µM (inactive) | 30.1 µM (inactive) | 25.7 µM (inactive) | 52.7 µM (inactive) | 34.1 µM (inactive) | 17.2 µM (inactive) | 44.5 µM (inactive) | 24.9 µM (inactive) | 51.1 µM (inactive) | 41.3 µM (inactive) | 24.1 µM (inactive) | 28.7 µM (inactive) | 26.8 µM (inactive) | 48.8 µM (inactive) | 65.9 µM (inactive) | 42 µM (inactive) | 70.1 µM (inactive)
